# Test results as given in patent US20230117328A1, “METHODS TO TREAT CANCER USING (R)-N-(3-FLUORO-4-((3-((1-HYDROXYPROPAN-2-YL)AMINO)-1H-PYRAZOLO[3,4-B]PYRIDIN-4-YL)OXY)PHENYL)-3-(4-FLUOROPHENYL)-1-ISOPROPYL-2,4-DIOXO-1,2,3,4-TETRAHYDROPYRIMIDINE-5-CARBOXAMIDE” (Array BioPharma Inc., priority 2020, published 2023).
# Where two headings read alike, the source gives them in different places.
# Test system: female Sprague Dawley rats
# Settings: for ocular histopathology findings, Day 28: 10 rats
# [1] = 100 mg/kg PO QD Days 1-14 (Group 4)
# [2] = 200 mg/kg PO QD Days 1-14 (Group 5)
# [3] = 200 mg/kg PO QD Days 1-14 (Group 5), 9 rats
smiles,measurement,setting,value
"CC(C)n1cc(C(=O)Nc2ccc(Oc3ccnc4[nH]nc(N[C@H](C)CO)c34)c(F)c2)c(=O)n(-c2ccc(F)cc2)c1=O.Cl [Compound 1 HCl, (R)—N-(3-fluoro-4-((3-((1-hydroxypropan-2-yl)amino)-1H-pyrazolo[3,4-b]pyridin-4-yl)oxy)phenyl)-3-(4-fluorophenyl)-1-isopropyl-2,4-dioxo-1,2,3,4-tetrahydropyrimidine-5-carboxamide hydrochloride]","ocular histopathology findings, Day 56","100 mg/kg PO QD Days 1-7 (Group 2), recovery necropsy, 5 rats",unilateral minimal diffuse atrophy of the ONL which was considered an equivocal change
same,"ocular histopathology findings, Day 28","100 mg/kg PO QD Days 1-7 (Group 2; Test Article 1, Schedule 1)",No test article-related observations
same,incidence of retinal changes (overall),[1],low incidence
same,reversibility of ocular (retinal) changes,[1],did not reverse
same,"animals with ocular (retinal) changes, Day 28","100 mg/kg PO QD Days 1-14 (Group 4; Test Article 1, Schedule 2), 9 rats",one animal (4F-7) had moderate atrophy of the outer nuclear layer (ONL) of the retina
same,"ocular histopathology findings, Day 28","200 mg/kg PO QD Days 1-7 (Group 3; Test Article 2, Schedule 1)",No test article-related observations
same,incidence of retinal changes (overall),[2],high incidence
same,reversibility of ocular (retinal) changes,[2],did not reverse
same,"animals with mild atrophy of ONL (thinning to approximately 6-7 nuclei), Day 28",[3],one animal
same,"animals with minimal atrophy of ONL (thinning to approximately 7-8 nuclei), Day 28",[3],two animals
same,"animals with minimal degeneration of the rods and cones layer, Day 28",[3],six animals
same,"animals with moderate atrophy of ONL (thinning to approximately 4-5 nuclei), Day 28",[3],five animals
same,"animals with moderate degeneration of rod and cone processes, Day 28",[3],two animals
same,"animals with ocular (retinal) changes, Day 28","200 mg/kg PO QD Days 1-14 (Group 5; Test Article 2, Schedule 2), 9 rats",retinal changes were observed in eight animals
same,"tolerability (body weight, clinical observations, deaths)","female rats, 100 or 200 mg/kg PO QD for 7 or 14 days","well tolerated with no effects on body weight, adverse clinical observations or deaths related to test article"
